Measured values: patent US20230159931A1, “TARGETING THE PALMOTYLATION/DEPALMOTYLATION CYCLE TO TREAT INFLAMMATORY DISEASES” (CORNELL UNIVERSITY, priority 2020, published 2023)

Assays:
[1] = test system: DSS-induced colitis in mice; test: DSS-induced mouse colitis model; type: in vivo
Description: FIGS. 4A-4I. The STAT3 palmitoylation-depalmitoylation cycle aggravates colitis. (A), (B) Human PBMCs from 26 healthy participants (Ctrl), 24 patients with Crohn's disease (CD; 7 remission stage (rem.) and 17 active stage (act.)) and 10 patients with ulcerative colitis (UC; 1 remission stage and 9 active stage) were extracted. LYPLA2 and ZDHHC7 mRNA levels were analysed using qPCR. The relative p-STAT3 levels were quantified by western blots. c, d, The correlations between IL17A (C) or p-STAT3 (D) and the mRNA levels of the indicated genes in 34 patients with IBD. (E), (F), C57BL/6J mice were treated with 2.5% DSS in drinking water ad libitum and ML349 was intraperitoneally injected daily on the day that DSS treatment started. Body weight changes (E) and TH17 cell levels in the spleen (F) were evaluated. (G), (H), Wild-type and DHHC7-knockout mice were treated with 2.5% DSS in drinking water ad libitum. Body weight changes (G) and TH17 cell levels in the spleen (H) were evaluated. (I), Model of the regulation of STAT3 by the palmitoylation-depalmitoylation cycle. Palmitoylation of STAT3 by DHHC7 promotes the membrane recruitment and phosphorylation of STAT3. APT2 promotes the nuclear translocation of p-STAT3 by selectively depalmitoylating p-STAT3 over STAT3. The palmitoylation-depalmitoylation cycle drives the membrane localization and phosphorylation of STAT3, and the nuclear translocation of p-STAT3. The direction of the cycle is ensured by the preference of APT2 for p-STAT3 over STAT3. Data are expressed as the mean±s.e.m. *P<0.05; **P<0.01.
The mouse protocol 2019-0009 was approved by the Institutional Animal Care and Use Committee (IACUC) at Cornell University. All animals were housed under specific-pathogen-free conditions following the regulations of the IACUC. Mice (6-8 weeks old) were randomized into different groups (8 mice per group, mixed sex) as indicated. Colitis was induced by treating with 3.0% DSS (MP Biomedicals) in their drinking water ad libitum. ML349 solution was intraperitoneally injected into the mice at the indicated doses every other day. All mice were euthanized and the spleens were isolated to detect T cells. The distance from caecum to anus was measured. The colon was fixed in 4% paraformaldehyde for pathological examination. The study was not blinded.
(§1) The inventors tested whether the pharmacological inhibition of APT2 with ML349 could reduce dextran sulfate sodium (DSS)-induced colitis in mice, an experimental model for IBD.

[2] = test system: SMAD2 S-palmitoylation; test: SMAD2 S-palmitoylation in HEK293T cells treated with APT inhibitors (Alk14, in-gel fluorescence); type: cell-based, human; conditions: 10 μM APT inhibitors for 24 hours; HEK293T cells with HA-DHHC7 and Flag-SMAD2
Excerpt: FIGS. 7A-7G. APT2 is the depalmitylase of SMAD2 and C-terminal phosphorylation of SMAD2 is S-palmitoylation independent. (A) C-terminal phosphorylation (Ser465/Ser467) levels of Flag-SMAD2 (p-SMAD2(C2)) in HEK293T cells expressing HA-tagged mouse DHHC1-23. SMAD2 was pulled down with Flag beads and subjected to western blot analyses. (B) HEK293T cells were transfected with HA-tagged DHHC7 and Flag-SMAD2 WT and C41/81S mutant plasmid and treated with Alk14. The S-palmitoylation level of immunoprecipitated SMAD2 was visualized by in-gel fluorescence and the p-SMAD2(C2) level was detected by western blot analyses. […] The S-palmitoylation level of immunoprecipitated SMAD2 was visualized by in-gel fluorescence. […] The cells were labeled with Alk14 and the S-palmitoylation of SMAD2 was determined by in-gel fluorescence. […] The cells were labeled with Alk14 and the S-palmitoylation of SMAD2 was determined by in-gel fluorescence and the p-SMAD2(C2) level was detected by western blot analyses. […]
Cells were treated with 50 μM palmitic acid analogue Alkyne 14 (Alk14) for 5 h and the collected and lysed in 1% NP-40 lysis buffer (25 mM Tris-HCl pH 8.0, 150 mM NaCl, 10% glycerol, 1% Nonidet P-40) with protease inhibitor cocktail. […] The protein concentration was determined by Bradford assay (23200, Thermo Fisher). […]

[3] = Tolerability of ML349 in mice; type: in vivo; conditions: 50 mg kg^−1, mice
Excerpt: as §1

[4] = DSS treatment followed by ML349 treatment, intraperitoneal
[5] = pretreatment with ML349 followed by treatment with DSS

COc1ccc(N2CCN(C(=O)c3cc4c(s3)-c3ccccc3S(=O)(=O)C4)CC2)cc1 [ML349]
colon shortening [1, 4]: significantly attenuated
weight loss [1, 4]: significantly attenuated
levels of TH17 cells in mouse splenocytes ([1]; DSS-treated mice, spleen): significantly decreased
survival rate [1, 5]: increased the survival rate
weight loss [1, 5]: significantly attenuated weight loss
SMAD2 S-palmitoylation signal [2]: significantly enhanced
tolerability [3]: well tolerated
